{
  "source": "patent US10208059B2",
  "about": "“Heterocyclic modulators of HIF activity for treatment of disease” (Board of Regents, University of Texas System, priority 2012, dated 2019)",
  "data": [
    {"test_system": "293T-HRE-GFP-luc cells", "test": "Cell-based reporter assay for IC50 determinations", "settings": "hypoxia 6 hrs (1% O2), luminescence, read-out: IC50 Classification", "method": "Cell-Based Reporter Assay for IC50 Determinations\n293T-HRE-GFP-luc cells were routinely maintained in DMEM media (high glucose version with GlutaMAX and HEPES, Gibco, catalog #10564) supplemented with 10% fetal bovine serum and 2 μg/mL puromycin (Invitrogen, catalog #A11138-03) using a humidified incubator (normoxia conditions consisting of 37° C., 5% CO2 and ambient O2).\nIn preparation for the reporter assay, cells were harvested and resuspended in DMEM media (high glucose version with GlutaMAX and HEPES) supplemented with 10% fetal bovine serum. Cells were inoculated into 384-well white Culturplates (Perkin Elmer catalog #6007680) at a density of 12,000 cells/well in a volume of 30 μL. The microplates were incubated overnight (approximately 17-19 hours) at 37° C. with 5% CO2 and ambient O2. Stock solutions of the test compounds were prepared in DMSO (Sigma, Catalog #D2650) and serially diluted 1:3 using DMSO. Compounds were additionally diluted (1:50) with culturemedium and 10 μL were added per well to the Culturplate. Following a 30 min. incubation under normoxia conditions, the plates were incubated in hypoxia for 6 hrs. (37° C., 5% CO2 and 1% O2). Steadylite Plus (Perkin Elmer, catalog #6016751) was then added (40 μL/well), the plates were mixed on an orbital shaker at room temperature in the dark for 15 min., and luminescence was measured using an Envision plate reader (Perkin Elmer). IC50 values were calculated using a four-parameter logistic curve fit. Results are shown below in Table 2; ND indicates no data.", "units": {"IC50": "nM"}, "values": [
      {"smiles": "Cc1nc(-c2noc(-c3ccc(OC(F)(F)F)cc3)n2)nn1Cc1cccc(N(C)C)c1", "note": "[Example 58, N,N-Dimethyl-3-((5-methyl-3-(5-(4-(trifluoromethoxy)phenyl)-1,2,4-oxadiazol-3-yl)-1H-1,2,4-triazol-1-yl)methyl)aniline]", "IC50": "100 to 1000"},
      {"smiles": "Cc1nc(-c2nc(-c3ccc(OC(F)(F)F)cc3)no2)nn1Cc1cccc(O)c1", "note": "[Example 59, 3-((5-Methyl-3-(3-(4-(trifluoromethoxy)phenyl)-1,2,4-oxadiazol-5-yl)-1H-1,2,4-triazol-1-yl)methyl)phenol]", "IC50": "100 to 1000"},
      {"smiles": "COCCOc1cccc(Cn2nc(-c3nc(-c4ccc(OC(F)(F)F)cc4)no3)nc2C)c1", "note": "[Example 60, 5-(1-{[3-(2-Methoxyethoxy)phenyl]methyl}-5-methyl-1H-1,2,4-triazol-3-yl)-3-[4-(trifluoromethoxy)phenyl]-1,2,4-oxadiazole]", "IC50": "< 100"},
      {"smiles": "Cc1nc(-c2nc(-c3ccc(OC(F)(F)F)cc3)no2)nn1Cc1cccc(OCC(N)=O)c1", "note": "[Example 61, 2-{3-[(5-Methyl-3-{3-[4-(trifluoromethoxy)phenyl]-124-oxadiazol-5-yl}-1H-124-triazol-1-yl)methyl]phenoxy}acetamide]", "IC50": "< 100"},
      {"smiles": "Cc1nc(-c2nc(-c3ccc(OC(F)(F)F)cc3)no2)nn1Cc1cccc(OCC(=O)N(C)C)c1", "note": "[Example 62, N N-Dimethyl-2-{3-[(5-methyl-3-{3-[4-(trifluoromethoxy)phenyl]-124-oxadiazol-5-yl}-1H-124-triazol-1-yl)methyl]phenoxy}acetamide]", "IC50": "< 100"},
      {"smiles": "Cc1nc(-c2nc(-c3ccc(OC(F)(F)F)cc3)no2)nn1Cc1cccc(OC(C)C)c1", "note": "[Example 63, 5-(5-Methyl-1-{[3-(propan-2-yloxy)phenyl]methyl}-1H-1,2,4-triazol-3-yl)-3-[4-(trifluoromethoxy)phenyl]-1,2,4-oxadiazole]", "IC50": "< 100"},
      {"smiles": "CCOc1cccc(Cn2nc(-c3nc(-c4ccc(OC(F)(F)F)cc4)no3)nc2C)c1", "note": "[Example 64, 5-{1-[(3-Ethoxyphenyl)methyl]-5-methyl-1H-1,2,4-triazol-3-yl}-3-[4-(trifluoromethoxy)phenyl]-1,2,4-oxadiazole]", "IC50": "< 100"},
      {"smiles": "Cc1nc(-c2nc(-c3ccc(OC(F)(F)F)cc3)no2)nn1Cc1cccc(OCCO)c1", "note": "[Example 65, 2-{3-[(5-Methyl-3-{3-[4-(trifluoromethoxy)phenyl]-1,2,4-oxadiazol-5-yl}-1H-1,2,4-triazol-1-yl)methyl]phenoxy}ethan-1-ol]", "IC50": "< 100"},
      {"smiles": "Cc1nc(-c2nc(-c3ccc(OC(F)(F)F)cc3)no2)nn1Cc1cccc(OCC#N)c1", "note": "[Example 66, 2-{3-[(5-Methyl-3-{3-[4-(trifluoromethoxy)phenyl]-1,2,4-oxadiazol-5-yl}-1H-1,2,4-triazol-1-yl)methyl]phenoxy}acetonitrile]", "IC50": "100 to 1000"},
      {"smiles": "Cc1nc(-c2nc(-c3ccc(OC(F)(F)F)cc3)no2)nn1Cc1cccc(OCCNC(=O)OC(C)(C)C)c1", "note": "[Example 67, Tert-butyl N-(2-{3-[(5-methyl-3-{3-[4-(trifluoromethoxy)phenyl]-1,2,4-oxadiazol-5-yl}-1H-1,2,4-triazol-1-yl)methyl]phenoxy}ethyl)carbamate]", "IC50": "< 100"},
      {"smiles": "Cc1nc(-c2nc(-c3ccc(OC(F)(F)F)cc3)no2)nn1Cc1cccc(OC2COC2)c1", "note": "[Example 68, 5-(5-Methyl-1-{[3-(oxetan-3-yloxy)phenyl]methyl}-1H-1,2,4-triazol-3-yl)-3-[4-(trifluoromethoxy)phenyl]-1,2,4-oxadiazole]", "IC50": "< 100"},
      {"smiles": "Cc1nc(-c2nc(-c3ccc(OC(F)(F)F)cc3)no2)nn1Cc1cccc(OC2CCOCC2)c1", "note": "[Example 69, 5-(5-Methyl-1-{[3-(oxan-4-yloxy)phenyl]methyl}-1H-1,2,4-triazol-3-yl)-3-[4-(trifluoromethoxy)phenyl]-1,2,4-oxadiazole]", "IC50": "< 100"},
      {"smiles": "Cc1nc(-c2nc(-c3ccc(OC(F)(F)F)cc3)no2)nn1Cc1cccc(OCCN)c1", "note": "[Example 70, 5-(1-{[3-(2-Aminoethoxy)phenyl]methyl}-5-methyl-1H-1,2,4-triazol-3-yl)-3-[4-(trifluoromethoxy)phenyl]-1,2,4-oxadiazole]", "IC50": "100 to 1000"},
      {"smiles": "Cc1nc(-c2nc(-c3ccc(OC(F)(F)F)cc3)no2)nn1Cc1cccc(OCCCO)c1", "note": "[Example 71, 3-{3-[(5-Methyl-3-{3-[4-(trifluoromethoxy)phenyl]-1,2,4-oxadiazol-5-yl}-1H-1,2,4-triazol-1-yl)methyl]phenoxy}propan-1-ol]", "IC50": "< 100"},
      {"smiles": "COC(C)(C)CCOc1cccc(Cn2nc(-c3nc(-c4ccc(OC(F)(F)F)cc4)no3)nc2C)c1", "note": "[Example 72, 5-(1-{[3-(3-Methoxy-3-methylbutoxy)phenyl]methyl}-5-methyl-1H-1,2,4-triazol-3-yl)-3-[4-(trifluoromethoxy)phenyl]-1,2,4-oxadiazole]", "IC50": "< 100"},
      {"smiles": "Cc1nc(-c2nc(-c3ccc(OC(F)(F)F)cc3)no2)nn1Cc1cccc(OC2CCN(C)CC2)c1", "note": "[Example 73, 1-Methyl-4-{3-[(5-methyl-3-{3-[4-(trifluoromethoxy)phenyl]-1,2,4-oxadiazol-5-yl}-1H-1,2,4-triazol-1-yl)methyl]phenoxy}piperidine]", "IC50": "< 100"},
      {"smiles": "Cc1nc(-c2nc(-c3ccc(OC(F)(F)F)cc3)no2)nn1Cc1cccc(OCCCN(C)C)c1", "note": "[Example 74, Dimethyl(3-{3-[(5-methyl-3-{3-[4-(trifluoromethoxy)phenyl]-1,2,4-oxadiazol-5-yl}-1H-1,2,4-triazol-1-yl)methyl]phenoxy}propyl)amine]", "IC50": "< 100"},
      {"smiles": "Cc1nc(-c2nc(-c3ccc(OC(F)(F)F)cc3)no2)nn1Cc1cc[nH]c(=O)c1", "note": "[Example 75, 4-[(5-Methyl-3-{3-[4-(trifluoromethoxy)phenyl]-1,2,4-oxadiazol-5-yl}-1H-1,2,4-triazol-1-yl)methyl]-1,2-dihydropyridin-2-one]", "IC50": "100 to 1000"},
      {"smiles": "Cc1nc(-c2nc(-c3ccc(OC(F)(F)F)cc3)no2)nn1Cc1ccn(CC(C)C)c(=O)c1", "note": "[Example 76a, 4-[(5-Methyl-3-{3-[4-(trifluoromethoxy)phenyl]-1,2,4-oxadiazol-5-yl}-1H-1,2,4-triazol-1-yl)methyl]-1-(2-methylpropyl)-1,2-dihydropyridin-2-one]", "IC50": "100 to 1000"},
      {"smiles": "Cc1nc(-c2nc(-c3ccc(OC(F)(F)F)cc3)no2)nn1Cc1ccnc(OCC(C)C)c1", "note": "[Example 76b, 4-[(5-Methyl-3-{3-[4-(trifluoromethoxy)phenyl]-1,2,4-oxadiazol-5-yl}-1H-1,2,4-triazol-1-yl)methyl]-2-(2-methylpropoxy)pyridine]", "IC50": "100 to 1000"},
      {"smiles": "Cc1nc(-c2nc(-c3ccc(OC(F)(F)F)cc3)no2)nn1Cc1ccc(=O)n(CC(C)C)c1", "note": "[Example 77a, 5-[(5-Methyl-3-{3-[4-(trifluoromethoxy)phenyl]-1,2,4-oxadiazol-5-yl}-1H-1,2,4-triazol-1-yl)methyl]-1-(2-methylpropyl)-1,2-dihydropyridin-2-one]", "IC50": "< 100"},
      {"smiles": "Cc1nc(-c2nc(-c3ccc(OC(F)(F)F)cc3)no2)nn1Cc1ccc(OCC(C)C)nc1", "note": "[Example 77b, 5-[(5-Methyl-3-{3-[4-(trifluoromethoxy)phenyl]-1,2,4-oxadiazol-5-yl}-1H-1,2,4-triazol-1-yl)methyl]-2-(2-methylpropoxy)pyridine]", "IC50": "100 to 1000"},
      {"smiles": "Cc1nc(-c2nc(-c3ccc(OC(F)(F)F)cc3)no2)nn1Cc1cccc(N)c1", "note": "[Example 78, 3-[(5-Methyl-3-{3-[4-(trifluoromethoxy)phenyl]-1,2,4-oxadiazol-5-yl}-1H-1,2,4-triazol-1-yl)methyl]aniline]", "IC50": "< 100"},
      {"smiles": "Cc1nc(-c2nc(-c3ccc(OC(F)(F)F)cc3)no2)nn1Cc1cccc(S(=O)(=O)N2CCN(C)CC2)c1", "note": "[Example 79, 1-Methyl-4-{3-[(5-methyl-3-{3-[4-(trifluoromethoxy)phenyl]-1,2,4-oxadiazol-5-yl}-1H-1,2,4-triazol-1-yl)methyl]benzenesulfonyl}piperazine]", "IC50": "< 100"},
      {"smiles": "Cc1nc(-c2nc(-c3ccc(OC(F)(F)F)cc3)no2)nn1Cc1cccc(N2CCNCC2)c1", "note": "[Example 81, 1-{3-[(5-Methyl-3-{3-[4-(trifluoromethoxy)phenyl]-1,2,4-oxadiazol-5-yl}-1H-1,2,4-triazol-1-yl)methyl]phenyl}piperazine]", "IC50": "< 100"},
      {"smiles": "Cc1nc(-c2nc(-c3ccc(OC(F)(F)F)cc3)no2)nn1Cc1cccc(N2CCN(S(C)(=O)=O)CC2)c1", "note": "[Example 82, 1-Methanesulfonyl-4-{3-[(5-methyl-3-{3-[4-(trifluoromethoxy)phenyl]-1,2,4-oxadiazol-5-yl}-1H-1,2,4-triazol-1-yl)methyl]phenyl}piperazine]", "IC50": "< 100"},
      {"smiles": "Cc1nc(-c2nc(-c3ccc(OC(F)(F)F)cc3)no2)nn1Cc1cccc(N2CCN(C(=O)CO)CC2)c1", "note": "[Example 83, 2-Hydroxy-1-(4-{3-[(5-methyl-3-{3-[4-(trifluoromethoxy)phenyl]-1,2,4-oxadiazol-5-yl}-1H-1,2,4-triazol-1-yl)methyl]phenyl}piperazin-1-yl)ethan-1-one]", "IC50": "< 100"},
      {"smiles": "C=Cc1cccc(Cn2nc(-c3nc(-c4ccc(OC(F)(F)F)cc4)no3)nc2C)c1", "note": "[Example 84, 5-{1-[(3-Ethenylphenyl)methyl]-5-methyl-1H-1,2,4-triazol-3-yl}-3-[4-(trifluoromethoxy)phenyl]-1,2,4-oxadiazole]", "IC50": "100 to 1000"}
    ]}
  ]
}
